Reference: ChEMBL document CHEMBL4130638, “Discovery of the Polyamine Conjugate with Benzo[ cd]indol-2(1 H)-one as a Lysosome-Targeted Antimetastatic Agent” (J Med Chem, 2018)
Active and inactive are the calls of the source. The rule behind the calls is not given here.

Assays:
Mus musculus [1] = assay: Toxicity in Balb/c mouse implanted with mouse CT26 cells assessed as increase in heart weight at 1 mg/kg, iv for 7 consecutive days starting from day 8 post tumor implantation; assay type: organism-based; settings: in vivo
HCT-116 [2] = assay: Induction of apoptosis in human HCT116 cells assessed as early apoptotic cells after 24 hrs by annexin V-FITC/propidium iodide staining based flow cytometry; assay type: functional, cell-based
HCT-116 [3] = assay: Downregulation of cathepsin-L protein expression in human HCT116 cells after 24 hrs by Western blot method; assay type: functional, cell-based
HCT-116 [4] = assay: Induction of apoptosis in human HCT116 cells assessed as late apoptotic cells after 24 hrs by annexin V-FITC/propidium iodide staining based flow cytometry; assay type: functional, cell-based
K562 = assay: Growth inhibition of human K562 cells after 48 hrs by MTT assay; assay type: functional, cell-based; settings: K562, 48 h
HCT-116 [5] = assay: Induction of autophagy in human HCT116 cells at 5 to 20 uM after 24 hrs in presence of pan-caspase inhibitor Z-VAD-FMK by MDC staining based flow cytometry; assay type: functional, cell-based
CT26 [6] = assay: Antimetastatic activity against mouse CT26 cells implanted in Balb/c mouse assessed as inhibition of pulmonary metastasis nodules at 1 mg/kg, iv for 7 consecutive days starting from day 8 post tumor implantation measured on day 15 post tumor implantation relative to control; assay type: functional
HCT-116 [7] = assay: Upregulation of SSAT protein expression in human HCT116 cells at 2.5 to 10 uM after 24 hrs by Western blot method; assay type: functional, cell-based
[8] = Drug uptake in human HCT116 cells by confocal microscopic method; assay type: ADME, cell-based; settings: hct-116
CT26 [9] = assay: Induction of apoptosis in mouse CT26 cells assessed as early apoptotic cells at 10 uM after 24 hrs by annexin V-FITC/propidium iodide staining based flow cytometry (reference value: 3.91%); assay type: functional
CT26 [10] = assay: Induction of apoptosis in mouse CT26 cells assessed as live cells at 10 uM after 24 hrs by annexin V-FITC/propidium iodide staining based flow cytometry (reference value: 89.47%); assay type: functional
HCT-116 [11] = assay: Induction of apoptosis in human HCT116 cells assessed as necrotic cells at 10 uM after 24 hrs in presence of pan-caspase inhibitor Z-VAD-FMK by annexin V-FITC/propidium iodide staining based flow cytometry (reference value: 3.9%); assay type: functional
HCT-116 [12] = assay: Upregulation of p53 protein expression in human HCT116 cells after 24 hrs by Western blot method; assay type: functional, cell-based
CT26 [13] = assay: Induction of autophagy in mouse CT26 cells at 10 to 20 uM after 24 hrs in presence of autophagy inhibitor 3-MA by Lyso staining based flow cytometry; assay type: functional, cell-based
HCT-116 [14] = assay: Downregulation of Bcl2 protein expression in human HCT116 cells up to 10 uM after 24 hrs in presence of autophagy inhibitor 3-MA by Western blot method; assay type: functional, cell-based
HCT-116 [15] = assay: Growth inhibition of human HCT116 cells after 24 hrs by MTT assay; assay type: functional, cell-based
HCT-116 [16] = assay: Growth inhibition of human HCT116 cells at 2.5 to 7.5 uM after 24 hrs in presence of spermidine by MTT assay; assay type: functional, cell-based
Mus musculus [17] = assay: Toxicity in Balb/c mouse implanted with mouse CT26 cells assessed as increase in liver weight at 1 mg/kg, iv for 7 consecutive days starting from day 8 post tumor implantation; assay type: organism-based; settings: in vivo
HCT-116 [18] = assay: Induction of apoptosis in human HCT116 cells assessed as early apoptotic cells at 10 uM after 24 hrs in presence of pan-caspase inhibitor Z-VAD-FMK by annexin V-FITC/propidium iodide staining based flow cytometry (reference value: 4.1%); assay type: functional
HCT-116 [19] = assay: Upregulation of cleaved caspase-8 protein expression in human HCT116 cells up to 10 uM after 24 hrs by Western blot method; assay type: functional, cell-based
HCT-116 [20] = assay: Upregulation of cleaved caspase-3 protein expression in human HCT116 cells up to 10 uM after 24 hrs in presence of autophagy inhibitor 3-MA by Western blot method; assay type: functional, cell-based
HCT-116 [21] = assay: Induction of apoptosis in human HCT116 cells after 24 hrs by acridine orange and ethidium bromide staining based high content screening analysis; assay type: functional, cell-based
Mus musculus [22] = assay: Toxicity in Balb/c mouse implanted with mouse CT26 cells assessed as changes in body weight at 1 mg/kg, iv for 7 consecutive days starting from day 8 post tumor implantation; assay type: organism-based; settings: in vivo
CT26 [23] = assay: Induction of apoptosis in mouse CT26 cells after 24 hrs by acridine orange and ethidium bromide staining based high content screening analysis; assay type: functional, cell-based
HCT-116 [24] = assay: Downregulation of beta-catenin protein expression in human HCT116 cells after 24 hrs by Western blot method; assay type: functional, cell-based
HCT-116 [25] = assay: Antimigratory activity against human HCT116 cells after 24 hrs by crystal violet staining based transwell assay; assay type: functional, cell-based
HCT-116 [26] = assay: Induction of autophagy in human HCT116 cells at 1 to 20 uM after 24 hrs by Lyso staining based flow cytometry; assay type: functional, cell-based
HCT-116 [27] = assay: Downregulation of MMP2 protein expression in human HCT116 cells after 24 hrs by Western blot method; assay type: functional, cell-based
HCT-116 [28] = assay: Upregulation of LAMP1 protein expression in human HCT116 cells at 10 uM after 24 hrs by Western blot method; assay type: functional, cell-based
HCT-116 [29] = assay: Induction of apoptosis in human HCT116 cells assessed as early apoptotic cells at 10 uM after 24 hrs by annexin V-FITC/propidium iodide staining based flow cytometry (reference value: 4.1%); assay type: functional
Mus musculus [30] = assay: Toxicity in Balb/c mouse implanted with mouse CT26 cells assessed as increase in spleen weight at 1 mg/kg, iv for 7 consecutive days starting from day 8 post tumor implantation; assay type: organism-based; settings: in vivo
CT26 [31] = assay: Induction of autophagy in mouse CT26 cells after 24 hrs by MDC staining based flow cytometry; assay type: functional, cell-based
HCT-116 [32] = assay: Induction of apoptosis in human HCT116 cells assessed as late apoptotic cells at 10 uM after 24 hrs in presence of pan-caspase inhibitor Z-VAD-FMK by annexin V-FITC/propidium iodide staining based flow cytometry (reference value: 2.03%); assay type: functional
HCT-116 [33] = assay: Induction of apoptosis in human HCT116 cells assessed as necrotic cells at 10 uM after 24 hrs by annexin V-FITC/propidium iodide staining based flow cytometry (reference value: 3.9%); assay type: functional
HCT-116 [34] = assay: Upregulation of p53 protein expression in human HCT116 cells up to 10 uM after 24 hrs in presence of autophagy inhibitor 3-MA by Western blot method; assay type: functional, cell-based
HCT-116 [35] = assay: Induction of autophagy in human HCT116 cells at 5 to 20 uM after 24 hrs in presence of pan-caspase inhibitor Z-VAD-FMK by Lyso staining based flow cytometry; assay type: functional, cell-based
HepG2 = assay: Growth inhibition of human HepG2 cells after 48 hrs by MTT assay; assay type: functional, cell-based; settings: HepG2, 48 h
CT26 [36] = assay: Induction of apoptosis in mouse CT26 cells assessed as late apoptotic cells at 10 uM after 24 hrs in presence of autophagy inhibitor 3-MA by annexin V-FITC/propidium iodide staining based flow cytometry (reference value: 2.26%); assay type: functional
Mus musculus [37] = assay: Toxicity in Balb/c mouse implanted with mouse CT26 cells assessed as changes in body weight at 1 mg/kg, iv for 14 consecutive days starting from day 8 post tumor implantation; assay type: organism-based; settings: in vivo
CT26 [38] = assay: Induction of autophagy in mouse CT26 cells at 10 to 20 uM after 24 hrs in presence of autophagy inhibitor 3-MA by MDC staining based flow cytometry; assay type: functional, cell-based

Cl.Cl.Cl.NCCCCNCCCCNCCCCN1C(=O)c2cccc3cccc1c23
Activity (Mus musculus [1]): Toxic | Activity (HCT-116 [2]): Dose-dependent effect | Activity (HCT-116 [3]): Dose-dependent effect | Activity (HCT-116 [4]): Dose-dependent effect | IC50 (K562): 12 µM | Activity (HCT-116 [5]): inactive | inhibition in vivo at 1 mg/kg (CT26 [6]): 82.5% | Activity (HCT-116 [7]): Dose-dependent effect | Drug uptake [8]: Dose-dependent effect and Tde | Activity (CT26 [9]): 42.37% | Activity (CT26 [10]): 30.85% | Activity (HCT-116 [11]): 8.07% | Activity (HCT-116 [12]): Dose-dependent effect | Activity (CT26 [13]): inactive | Activity (HCT-116 [14]): inactive | growth inhibition (GI) (HCT-116 [15]): Dose-dependent effect | IC50 (HCT-116 [15]; HCT-116, 24 h): 6.9 µM | growth inhibition (GI) (HCT-116 [16]): inactive | Activity (Mus musculus [17]): Toxic | Activity (HCT-116 [18]): 11.4% | Activity (HCT-116 [19]): Active | Activity (HCT-116 [20]): inactive | Activity (HCT-116 [21]): Dose-dependent effect | Activity (Mus musculus [22]): Non-Toxic | Activity (CT26 [23]): Dose-dependent effect | Activity (HCT-116 [24]): Dose-dependent effect | Activity (HCT-116 [25]): Dose-dependent effect | Activity (HCT-116 [26]): Active | Activity (HCT-116 [27]): Dose-dependent effect | Activity (HCT-116 [28]): Active | Activity (HCT-116 [29]): 31.31% | Activity (Mus musculus [30]): Toxic | Activity (CT26 [31]): Dose-dependent effect | Activity (HCT-116 [32]): 13.6% | Activity (HCT-116 [33]): 2.97% | Activity (HCT-116 [34]): inactive | Activity (HCT-116 [35]): inactive | IC50 (HepG2): 5.28 µM | Activity (CT26 [36]): 6.59% | Activity (Mus musculus [37]): Non-Toxic | Activity (CT26 [38]): inactive
